This experiment concerns BDF1 mice, B16 melanoma ip, median survival T/C. Put plainly: NCI In Vivo Anticancer Drug Screen. Data for tumor model B16 Melanoma (intraperitoneal) in B6D2F1 (BDF1) mice. Particulars: endpoint: median survival time, higher = longer survival. Summed up: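 Survival or tumor size is measured after treatment of tumor-bearing mice and normalised to the vehicle-treated control group.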

Where [1] appears, read: dose: 400.0 mg/kg/injection, schedule: Q01DX009 (ip), vehicle: saline with Tween-80.
Setting [2] is: dose: 25.0 mg/kg/injection, schedule: Q01DX009 (ip), vehicle: saline with Tween-80.
Setting [3] is: dose: 50.0 mg/kg/injection, schedule: Q01DX009 (ip), vehicle: saline with Tween-80.
The mark [4] stands for this setting: dose: 12.5 mg/kg/injection, schedule: Q01DX009 (ip), vehicle: saline with Tween-80.
The mark [5] stands for this setting: dose: 100.0 mg/kg/injection, schedule: Q01DX009 (ip), vehicle: saline with Tween-80.
Setting [6] is: dose: 200.0 mg/kg/injection, schedule: Q01DX009 (ip), vehicle: saline with Tween-80.
Setting [7] is: dose: 12.5 mg/kg/injection, schedule: Q04DX003 (ip), vehicle: Klucel (hydroxypropylcellulose) (HPC).
Where [8] appears, read: dose: 25.0 mg/kg/injection, schedule: Q04DX003 (ip), vehicle: Klucel (hydroxypropylcellulose) (HPC).
The mark [9] stands for this setting: dose: 100.0 mg/kg/injection, schedule: Q04DX003 (ip), vehicle: Klucel (hydroxypropylcellulose) (HPC).
[10] abbreviates: dose: 200.0 mg/kg/injection, schedule: Q01DX009 (ip), vehicle: Klucel (hydroxypropylcellulose) (HPC).
Where [11] appears, read: dose: 200.0 mg/kg/injection, schedule: Q04DX003 (ip), vehicle: Klucel (hydroxypropylcellulose) (HPC).
[12] abbreviates: dose: 400.0 mg/kg/injection, schedule: Q04DX003 (ip), vehicle: Klucel (hydroxypropylcellulose) (HPC).

This note sets out measurements from PubChem BioAssay AID192 (DTP/NCI, 2004).

The structures appear in SMILES notation. Several values for one entry are separate records, joined by “and”; a condition that tells them apart may be missing. Equal entries are not always repeated. Toxic doses and inconclusive results are not listed. Numbered stars: 1 amine (or outer) side, 2 acyl side, 3 side chain; on linkers, the order of the positions; unused ones are H or OH. Bridge positions count the residues as written; N and C are the ends. Square brackets hold non-standard residues; d marks the D form. Peptide text beside a SMILES is read from it. I, II: the chains in the order shown. Actinocin(9to1) = Cc1c2oc3c(C)ccc(C(=O)[*:1])c3nc-2c(C(=O)[*:2])c(N)c1=O; NMeV = CN[CH](C(=O)O)C(C)C; Sar = CNCC(=O)O

With `Oc1ccc2ccccc2c1N=Nc1ccc(Cl)cc1`, the T/C under setting [1] was 90 % of control.

Consider `CCC1(C)c2cc(C)c(C(C)=O)cc2C(C)(C)C1C` (stereo unspecified), for which the T/C is, setting by setting: under setting [2], 107 % of control; under setting [3], 99 % of control.

For the molecule `O=c1[nH]cc(F)c(=O)[nH]1.[Tl]`, the T/C is, setting by setting: (dose: 1.25 mg/kg/injection, schedule: Q01DX009 (ip), vehicle: water) 95 % of control; (dose: 2.5 mg/kg/injection, schedule: Q01DX009 (ip), vehicle: water) 100 % of control; (dose: 5.0 mg/kg/injection, schedule: Q01DX009 (ip), vehicle: water) 102 % of control; (dose: 10.0 mg/kg/injection, schedule: Q01DX009 (ip), vehicle: water) 113 % of control.

On to `Cc1c2oc3c(C)ccc(C(=O)NC4C(=O)NC(C(C)C)C(=O)N(C)CC(=O)N(C)CC(=O)N(C)C(C(C)C)C(=O)OC4C)c3nc-2c(C(=O)NC2C(=O)NC(C(C)C)C(=O)N(C)CC(=O)N(C)CC(=O)N(C)C(C(C)C)C(=O)OC2C)c(N)c1=O` (stereo unspecified) (I: TV[Sar][Sar][NMeV] / II: TV[Sar][Sar][NMeV]; ester I:1-I:C, II:1-II:C; linker I:N-II:N via Actinocin(9to1); configuration not given here), for which the T/C by setting is: (dose: 0.71 mg/kg/injection, schedule: Q01DX009 (ip), vehicle: water) 161 % of control; (dose: 1.07 mg/kg/injection, schedule: Q01DX009 (ip), vehicle: water) 161 % of control; (dose: 125.0 micrograms/kg/injection, schedule: Q01DX009 (ip), vehicle: saline + alcohol) 112 % of control; (dose: 375.0 micrograms/kg/injection, schedule: Q04DX003 (ip), vehicle: saline + alcohol) 117 % of control and 123 % of control; (dose: 1500.0 micrograms/kg/injection, schedule: Q04DX003 (ip), vehicle: saline + alcohol) 162 % of control; (dose: 3000.0 micrograms/kg/injection, schedule: Q04DX003 (ip), vehicle: saline + alcohol) 159 % of control.

Turning to `C/C=C/C=C/c1cc2cc3c(c(O)c2c(=O)[nH]1)C1(CC3)C(O)=c2c(=O)c3c(=O)cc(OC)c(=O)c=3c(=O)c2=C1O` (stereo unspecified), the T/C reads like this: (dose: 0.06 mg/kg/injection, schedule: Q01DX009 (ip), vehicle: DMSO) 98 % of control; (dose: 0.12 mg/kg/injection, schedule: Q01DX009 (ip), vehicle: DMSO) 99 % of control; (dose: 0.25 mg/kg/injection, schedule: Q01DX009 (ip), vehicle: DMSO) 96 % of control; (dose: 0.5 mg/kg/injection, schedule: Q01DX009 (ip), vehicle: DMSO) 120 % of control.

Regarding `C(C#CCN1CCOCC1)#CCN1CCOCC1`, the T/C runs as follows: under setting [4], 102 % of control and 103 % of control; under setting [2], 97 % of control; under setting [3], 93 % of control and 96 % of control; under setting [5], 90 % of control and 97 % of control (2×); under setting [6], 90 % of control and 97 % of control (2×); under setting [1], 90 % of control and 97 % of control and 107 % of control.

As to `Cc1cccc2cc3c(ccc4ccccc43)c[n+]12`, the T/C (dose: 1.0 mg/kg/injection, schedule: Q01DX009 (ip), vehicle: saline sonified) was 105 % of control; the T/C (dose: 2.0 mg/kg/injection, schedule: Q01DX009 (ip), vehicle: saline sonified) was 107 % of control; the T/C (dose: 4.0 mg/kg/injection, schedule: Q01DX009 (ip), vehicle: saline sonified) is 102 % of control.

As to `O=C(/C=C/c1ccncc1)c1ccccc1`, the T/C is, setting by setting: under setting [7], 93 % of control; under setting [8], 110 % of control; (dose: 50.0 mg/kg/injection, schedule: Q04DX003 (ip), vehicle: Klucel (hydroxypropylcellulose) (HPC)) 103 % of control; under setting [9], 99 % of control.

`COc1ccc2c(NCCCCCCCCNc3c4ccccc4nc4cc(OC)ccc34)c3ccccc3nc2c1`: where the note is “dose: 3.75 mg/kg/injection, schedule: Q01DX009 (ip), vehicle: distilled water + alcohol”, the T/C was 95 % of control.

`O=C(NC(CSC(=O)OCc1ccccc1)C(=O)Oc1ccc([N+](=O)[O-])cc1)OCc1ccccc1` (stereo unspecified): the T/C reads like this: (dose: 50.0 mg/kg/injection, schedule: Q01DX009 (ip), vehicle: Klucel (hydroxypropylcellulose) (HPC)) 105 % of control; under setting [10], 100 % of control.

Turning to `CNNCc1ccc(C(=O)NC(C)C)cc1`, the T/C is 121 % of control (dose: 37.5 mg/kg/injection, schedule: Q01DX009 (ip), vehicle: water); 108 % of control (dose: 40.0 mg/kg/injection, schedule: Q01DX009 (ip), vehicle: saline with Tween-80); 123 % of control (dose: 54.0 mg/kg/injection, schedule: Q01DX009 (ip), vehicle: saline); 120 % of control (dose: 90.0 mg/kg/injection, schedule: Q01DX009 (ip), vehicle: saline); 123 % of control (dose: 250.0 mg/kg/injection, schedule: Q01DX009 (ip), vehicle: saline); 98 % of control (dose: 320.0 mg/kg/injection, schedule: Q01DX009 (ip), vehicle: saline with Tween-80).

`COC(=O)[C@H]1[C@H]2C[C@@H]3c4[nH]c5cc(OC)ccc5c4CCN3C[C@H]2C[C@@H](OC(=O)c2cc(OC)c(OC)c(OC)c2)[C@@H]1OC`: the T/C is, setting by setting: (dose: 0.04 mg/kg/injection, schedule: Q01DX009 (ip), vehicle: saline) 91 % of control; (dose: 0.09 mg/kg/injection, schedule: Q01DX009 (ip), vehicle: saline) 91 % of control; (dose: 0.19 mg/kg/injection, schedule: Q01DX009 (ip), vehicle: saline) 90 % of control; (dose: 0.39 mg/kg/injection, schedule: Q01DX009 (ip), vehicle: saline) 91 % of control; (dose: 0.78 mg/kg/injection, schedule: Q01DX009 (ip), vehicle: saline) 88 % of control.

With `O=Cc1c(O)c2ccccc2[nH]c1=O`, the T/C is 106 % of control and 120 % of control under setting [2]; 102 % of control and 107 % of control under setting [3]; 122 % of control under setting [5].

On to `CCc1cc(C)cc(OC(=O)Nc2ccccc2)c1`, for which the T/C runs as follows: under setting [5], 97 % of control; under setting [6], 93 % of control; under setting [1], 100 % of control.

Turning to `NC(=O)C(Cl)(Cl)Cl`, the T/C is, setting by setting: under setting [5], 105 % of control; under setting [6], 96 % of control; under setting [1], 98 % of control.

`O=C1C(NCC(O)CO)=C(N2CC2)C(=O)C(NCC(O)CO)=C1N1CC1` (stereo unspecified): the T/C by setting is: (dose: 1.0 mg/kg/injection, schedule: Q01DX009 (ip), vehicle: saline) 95 % of control; (dose: 2.0 mg/kg/injection, schedule: Q01DX009 (ip), vehicle: saline) 121 % of control; (dose: 4.0 mg/kg/injection, schedule: Q01DX009 (ip), vehicle: saline) 123 % of control.

As to `CN1CCN(C(c2ccccc2)c2ccc(Cl)cc2)CC1` (stereo unspecified), the T/C is, setting by setting: (dose: 3.12 mg/kg/injection, schedule: Q01DX009 (ip), vehicle: saline) 105 % of control; (dose: 6.25 mg/kg/injection, schedule: Q01DX009 (ip), vehicle: saline) 105 % of control; (dose: 12.5 mg/kg/injection, schedule: Q01DX009 (ip), vehicle: saline) 102 % of control; (dose: 25.0 mg/kg/injection, schedule: Q01DX009 (ip), vehicle: saline) 102 % of control; (dose: 50.0 mg/kg/injection, schedule: Q01DX009 (ip), vehicle: saline) 100 % of control.

With `O=C(/C=C/C(=O)Oc1c(Cl)cc(Cl)cc1Cl)Oc1c(Cl)cc(Cl)cc1Cl`, the T/C is 95 % of control under setting [9], 92 % of control under setting [11] and 95 % of control under setting [12].

Consider `Nc1ccc(S(=O)(=O)CCCl)cc1`, for which the T/C under setting [7] was 100 % of control, the T/C under setting [8] was 105 % of control and the T/C under setting [11] is 99 % of control.

As to `CC(=O)N(C)c1ccc(/C=C2\C=Cc3ccccc32)cc1`, the T/C by setting is: (dose: 6.25 mg/kg/injection, schedule: Q01DX009 (ip), vehicle: saline with Tween-80) 96 % of control; under setting [4], 100 % of control; under setting [2], 102 % of control.

`CC(=O)N/C(=C/c1ccccc1)C(=O)O`: the T/C was 94 % of control (dose: 100.0 mg/kg/injection, schedule: Q01DX009 (ip), vehicle: Klucel (hydroxypropylcellulose) (HPC)); 93 % of control under setting [9]; 108 % of control under setting [10]; 86 % of control under setting [11]; 97 % of control (dose: 400.0 mg/kg/injection, schedule: Q01DX009 (ip), vehicle: Klucel (hydroxypropylcellulose) (HPC)); 90 % of control under setting [12].
